Laboratory results: US20170246204A1, “MEDICAMENT FOR TREATING A DISEASE RELATING TO A DYSFUNCTION OF THE DOPAMINERGIC SYNAPTIC TRANSMISSION” (L'Air Liquide, Société Anonyme pour l'Etude et …, priority 2014, published 2017)

Tests used:
[1] = test system: dopaminergic neurons (TH+) of rat mesencephalon cultures; assay: neurite length per TH+ dopaminergic neuron in mesencephalon cultures; format: cell-based; conditions: D14; memantine 10 μM; 75% Xe or 75% N2; p<0.05, n=9
Method: Cultures are prepared from mesencephalon of rat embryos, taking from female Wistar rats, on day 15.5 of gestation. The process for obtaining the mesencephalon cultures comprises the obtaining of a homogeneous cell suspension by mechanical dissociation, that is to say non-enzymatic dissociation, of the embryonic tissue, using Leibovitz's L15 medium (Sigma Aldrich). Aliquots of this suspension are added to 48-well Nunc plates, which have been precoated with a thin layer of polyethyleneimine (1 mg/ml, borate buffer, pH 8.3) so as to allow the adhesion of neuronal cells (Toulorge et al., Faseb J, 2011). The seeding density is between approximately 80 000 and 100 000 cells/cm^2. The mesencephalon cultures are maintained in Minimum Essential culture Medium (MEM), containing 1 g/l of glucose, 2 mM of L-glutamine, 1 mM of sodium pyruvate, non-essential amino acids and a penicillin/streptomycin cocktail. For the first week of culture, this medium is supplemented with 10% of fetal calf serum and 10% of horse serum. […] Up until the moment when the effects of the gases of interest are evaluated, the cultures are placed in a conventional enclosure thermostated at 37° C., in which the CO2 is maintained at 5% by volume and wherein the atmosphere is saturated with water. […] This parameter is evaluated with the same HCS Studio software.

[2] = test system: dopaminergic neurons (TH+) of rat mesencephalon cultures; assay: tritiated dopamine reuptake per TH+ dopaminergic neuron in mesencephalon cultures; format: cell-based; conditions: D14; memantine 10 μM; 75% Xe or 75% N2; p<0.05, n=9
Method: Cultures are prepared from mesencephalon of rat embryos, taking from female Wistar rats, on day 15.5 of gestation.
The process for obtaining the mesencephalon cultures comprises the obtaining of a homogeneous cell suspension by mechanical dissociation, that is to say non-enzymatic dissociation, of the embryonic tissue, using Leibovitz's L15 medium (Sigma Aldrich).
Aliquots of this suspension are added to 48-well Nunc plates, which have been precoated with a thin layer of polyethyleneimine (1 mg/ml, borate buffer, pH 8.3) so as to allow the adhesion of neuronal cells (Toulorge et al., Faseb J, 2011).
The seeding density is between approximately 80 000 and 100 000 cells/cm^2.
The mesencephalon cultures are maintained in Minimum Essential culture Medium (MEM), containing 1 g/l of glucose, 2 mM of L-glutamine, 1 mM of sodium pyruvate, non-essential amino acids and a penicillin/streptomycin cocktail. For the first week of culture, this medium is supplemented with 10% of fetal calf serum and 10% of horse serum. Starting from the second week, the serum concentrations are reduced to 2% (Gao et al., J Neurosci, 2002).
Up until the moment when the effects of the gases of interest are evaluated, the cultures are placed in a conventional enclosure thermostated at 37° C., in which the CO2 is maintained at 5% by volume and wherein the atmosphere is saturated with water. […]

| SMILES | neurite length per TH^+ neuron, effect compared with control cultures under 75% nitrogen (FIG. 2) [1] | dopamine reuptake per TH^+ neuron, effect compared with control cultures under 75% nitrogen (FIG. 1) [2] |
| --- | --- | --- |
| CC12CC3CC(C)(C1)CC(N)(C3)C2 [Memantine, memantine] | significantly greater | significantly greater |
| [Xe] [Xenon, xenon] | significantly greater | significantly greater |
